Results reported in patent US10981911B2, “Imidazopyrrolopyridine as inhibitors of the JAK family of kinases” (Janssen Pharmaceutica NV, priority 2016, dated 2021).

Columns and labels:
Type in all cases: biochemical
JAK3-JH1JH2 = JAK3-JH1JH2 (Homo sapiens (Human), UniProt P52333); experiment: Enzymatic inhibition assay (RapidFire HTMS), JAK3; settings: 150 μM ATP, 40 μM substrate
Outline: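 JAK3 JH1JH2 reaction incubated 45 min at 25 °C, then quenched with 0.5% TFA containing 0.15 μM internal standard peptide. Phosphopeptide product measured by RapidFire C4 SPE–ESI MS (positive mode); inhibition from product decrease versus uninhibited enzyme, 11-point 1:3 or 1:4 dilutions in duplicate.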

JAK2-JH1JH2 = JAK2-JH1JH2 (Homo sapiens (Human), UniProt O60674); experiment: Enzymatic inhibition assay (RapidFire HTMS), JAK2; settings: 30 μM ATP, 40 μM substrate
Chain of JAK2-JH1JH2 (O60674 532-1132): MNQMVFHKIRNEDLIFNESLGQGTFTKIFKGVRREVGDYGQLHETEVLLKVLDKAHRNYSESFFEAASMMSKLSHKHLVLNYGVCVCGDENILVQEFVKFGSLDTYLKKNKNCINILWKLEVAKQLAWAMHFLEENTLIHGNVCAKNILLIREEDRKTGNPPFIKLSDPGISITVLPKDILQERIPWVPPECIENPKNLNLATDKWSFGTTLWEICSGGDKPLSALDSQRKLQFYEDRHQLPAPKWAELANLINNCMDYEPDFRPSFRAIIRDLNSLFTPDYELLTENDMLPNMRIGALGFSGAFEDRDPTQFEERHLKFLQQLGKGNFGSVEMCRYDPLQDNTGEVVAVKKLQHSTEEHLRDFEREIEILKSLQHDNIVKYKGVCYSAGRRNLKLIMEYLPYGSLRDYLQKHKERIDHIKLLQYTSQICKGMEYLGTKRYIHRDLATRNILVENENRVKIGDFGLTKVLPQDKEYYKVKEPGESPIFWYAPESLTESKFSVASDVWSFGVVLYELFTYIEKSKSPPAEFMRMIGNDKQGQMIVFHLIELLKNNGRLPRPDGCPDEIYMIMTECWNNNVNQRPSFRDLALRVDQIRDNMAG
Outline: (§1)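 Quenched with 0.5% TFA plus internal-standard peptide; phosphorylated product quantified by RapidFire C4 SPE–ESI-MS, 11-point 1:3 or 1:4 dilutions in duplicate.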

JAK1-JH1JH2 = JAK1-JH1JH2 (Homo sapiens (Human), UniProt P23458); experiment: Enzymatic inhibition assay (RapidFire HTMS), JAK1; settings: 12.5 μM ATP, 200 μM substrate; read-out: JAK1-JH2JH1 IC50
Chain of JAK1-JH1JH2 (P23458 574-1154): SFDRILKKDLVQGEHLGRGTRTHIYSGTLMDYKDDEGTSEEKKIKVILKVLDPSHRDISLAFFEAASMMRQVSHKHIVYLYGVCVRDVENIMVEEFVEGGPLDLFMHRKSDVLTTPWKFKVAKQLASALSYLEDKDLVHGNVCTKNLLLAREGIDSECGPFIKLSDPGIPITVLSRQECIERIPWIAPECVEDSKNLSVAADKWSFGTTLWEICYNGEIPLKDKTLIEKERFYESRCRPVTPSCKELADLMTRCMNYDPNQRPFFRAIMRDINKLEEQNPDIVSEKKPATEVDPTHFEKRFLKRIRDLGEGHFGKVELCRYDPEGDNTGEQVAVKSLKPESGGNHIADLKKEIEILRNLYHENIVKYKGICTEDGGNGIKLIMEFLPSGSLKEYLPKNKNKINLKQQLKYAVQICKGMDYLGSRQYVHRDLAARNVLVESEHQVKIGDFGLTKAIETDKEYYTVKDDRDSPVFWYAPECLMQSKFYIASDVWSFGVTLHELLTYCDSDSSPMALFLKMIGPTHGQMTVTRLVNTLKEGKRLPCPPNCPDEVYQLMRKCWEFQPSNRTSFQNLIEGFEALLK
Outline: as §1

Tyk2-JH1JH2 = Tyk2-JH1JH2 (Homo sapiens (Human), UniProt P29597, C1142A/C936A); experiment: Enzymatic inhibition assay (RapidFire HTMS), Tyk2; settings: 50 μM ATP, 200 μM substrate
Chain of Tyk2-JH1JH2 (P29597 580-1182 C936A/C1142A): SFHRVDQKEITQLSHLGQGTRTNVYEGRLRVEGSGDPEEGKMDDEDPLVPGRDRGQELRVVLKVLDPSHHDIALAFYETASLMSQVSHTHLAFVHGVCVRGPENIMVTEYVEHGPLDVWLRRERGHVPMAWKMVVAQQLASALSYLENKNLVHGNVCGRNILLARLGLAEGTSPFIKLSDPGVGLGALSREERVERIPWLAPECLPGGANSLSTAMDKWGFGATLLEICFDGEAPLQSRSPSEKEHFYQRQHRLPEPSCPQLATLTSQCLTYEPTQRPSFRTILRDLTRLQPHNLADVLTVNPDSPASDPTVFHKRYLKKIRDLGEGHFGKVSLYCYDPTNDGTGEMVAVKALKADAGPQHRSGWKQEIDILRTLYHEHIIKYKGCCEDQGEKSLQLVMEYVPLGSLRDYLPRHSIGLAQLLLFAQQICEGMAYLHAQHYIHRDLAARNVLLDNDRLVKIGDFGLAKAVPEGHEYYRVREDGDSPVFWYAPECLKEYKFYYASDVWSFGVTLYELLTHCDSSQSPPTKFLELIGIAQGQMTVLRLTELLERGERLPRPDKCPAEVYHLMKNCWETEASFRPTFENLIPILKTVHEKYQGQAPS
Outline: as §1

Chain of JAK3-JH1JH2 (P52333 512-1124): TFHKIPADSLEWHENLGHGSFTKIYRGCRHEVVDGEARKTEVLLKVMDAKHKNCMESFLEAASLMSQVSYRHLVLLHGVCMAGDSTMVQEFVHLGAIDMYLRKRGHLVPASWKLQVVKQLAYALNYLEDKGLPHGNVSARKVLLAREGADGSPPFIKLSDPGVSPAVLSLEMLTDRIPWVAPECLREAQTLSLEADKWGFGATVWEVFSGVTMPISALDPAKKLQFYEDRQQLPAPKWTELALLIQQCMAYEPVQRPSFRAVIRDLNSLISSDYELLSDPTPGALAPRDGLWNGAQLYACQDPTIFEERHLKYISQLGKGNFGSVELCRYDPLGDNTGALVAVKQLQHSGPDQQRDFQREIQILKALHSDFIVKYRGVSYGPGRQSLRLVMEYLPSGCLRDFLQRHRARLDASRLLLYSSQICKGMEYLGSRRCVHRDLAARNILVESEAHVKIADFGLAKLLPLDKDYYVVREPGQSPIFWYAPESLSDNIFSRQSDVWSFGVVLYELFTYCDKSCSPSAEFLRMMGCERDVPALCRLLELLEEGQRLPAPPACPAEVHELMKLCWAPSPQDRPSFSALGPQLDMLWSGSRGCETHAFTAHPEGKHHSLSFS

## C[S@](=O)(=NCc1nc2cnc3[nH]ccc3c2n1[C@H]1CC[C@H](CC#N)CC1)c1ccccc1 [Ex. 162, 2-((1r,4r)-4-(2-((((R)-Methyl(oxo)(phenyl)-λ^6-sulfanylidene)amino)methyl)imidazo[4,5-d]pyrrolo[2,3-b]pyridin-1(6H)-yl)cyclohexyl)acetonitrile]
JAK3-JH1JH2
  IC50: 2270 nM
JAK2-JH1JH2
  IC50: 113 nM
JAK1-JH1JH2
  IC50: 1.6 nM
Tyk2-JH1JH2
  IC50: 81.7 nM

## C[S@@](=O)(=NCc1nc2cnc3[nH]ccc3c2n1[C@H]1CC[C@H](CC#N)CC1)c1ccccc1 [Ex. 163, 2-((1r,4r)-4-(2-((((S)-methyl(oxo)(phenyl)-λ^6-sulfanylidene)amino)methyl)imidazo[4,5-d]pyrrolo[2,3-b]pyridin-1(6H)-yl)cyclohexyl)acetonitrile]
JAK3-JH1JH2
  IC50: 864 nM
JAK2-JH1JH2
  IC50: 21.2 nM
JAK1-JH1JH2
  IC50: 3.2 nM
Tyk2-JH1JH2
  IC50: 60.8 nM

## CC(=O)N1CCC(c2nc3cnc4[nH]ccc4c3n2[C@H]2CC[C@H](CC#N)CC2)CC1 [Ex. 164, 2-((1r,4r)-4-(2-(1-Acetylpiperidin-4-yl)imidazo[4,5-d]pyrrolo[2,3-b]pyridin-1(6H)-yl)cyclohexyl)acetonitrile]
JAK3-JH1JH2
  IC50: 2150 nM
JAK2-JH1JH2
  IC50: 125 nM
JAK1-JH1JH2
  IC50: 1.6 nM
Tyk2-JH1JH2
  IC50: 174 nM

## N#CC[C@H]1CC[C@H](n2c(Cn3c(C4CC4)noc3=O)nc3cnc4[nH]ccc4c32)CC1 [Ex. 165, 2-((1r,4r)-4-(2-((3-Cyclopropyl-5-oxo-1,2,4-oxadiazol-4(5H)-yl)methyl)imidazo[4,5-d]pyrrolo[2,3-b]pyridin-1(6H)-yl)cyclohexyl)acetonitrile]
JAK3-JH1JH2
  IC50: 2700 nM
JAK2-JH1JH2
  IC50: 122 nM
JAK1-JH1JH2
  IC50: 1.7 nM
Tyk2-JH1JH2
  IC50: 30.5 nM

## N#CC[C@H]1CC[C@H](n2c(-c3cnn(Cc4cocn4)c3)nc3cnc4[nH]ccc4c32)CC1 [Ex. 166, 2-((1r,4r)-4-(2-(1-(Oxazol-4-ylmethyl)-1H-pyrazol-4-yl)imidazo[4,5-d]pyrrolo[2,3-b]pyridin-1(6H)-yl)cyclohexyl)acetonitrile]
JAK3-JH1JH2
  IC50: 144 nM
JAK2-JH1JH2
  IC50: 17 nM
JAK1-JH1JH2
  IC50: 1.8 nM
Tyk2-JH1JH2
  IC50: 37.3 nM

## CC(C)(O)CN1CCC(c2nc3cnc4[nH]ccc4c3n2[C@H]2CC[C@H](CC#N)CC2)CC1 [Ex. 168, 2-((1r,4r)-4-(2-(1-(2-Hydroxy-2-methylpropyl)piperidin-4-yl)imidazo[4,5-d]pyrrolo[2,3-b]pyridin-1(6H)-yl)cyclohexyl)acetonitrile]
JAK3-JH1JH2
  IC50: 1570 nM
JAK2-JH1JH2
  IC50: 34.2 nM
JAK1-JH1JH2
  IC50: 2 nM
Tyk2-JH1JH2
  IC50: 30.7 nM

## C#Cc1ccc(C(=O)c2ccc(-c3nc4cnc5[nH]ccc5c4n3[C@H]3CC[C@H](CC#N)CC3)cc2)cc1 [Ex. 169, 2-((1r,4r)-4-(2-(4-(4-Ethynylbenzoyl)phenyl)imidazo[4,5-d]pyrrolo[2,3-b]pyridin-1(6H)-yl)cyclohexyl)acetonitrile]
JAK3-JH1JH2
  IC50: 5640 nM
JAK2-JH1JH2
  IC50: 30.7 nM
JAK1-JH1JH2
  IC50: 2 nM
Tyk2-JH1JH2
  IC50: 104 nM

## C#Cc1ccc(C(=O)c2ccc(CCc3nc4cnc5[nH]ccc5c4n3[C@H]3CC[C@H](CC#N)CC3)cc2)cc1 [Ex. 170, 2-((1r,4r)-4-(2-(4-(4-Ethynylbenzoyl)phenethyl)imidazo[4,5-d]pyrrolo[2,3-b]pyridin-1(6H)-yl)cyclohexyl)acetonitrile]
JAK3-JH1JH2
  IC50: > 12500 nM
JAK2-JH1JH2
  IC50: 80.9 nM
JAK1-JH1JH2
  IC50: 1.5 nM
Tyk2-JH1JH2
  IC50: 26.4 nM

## CC(C)NC(=O)NCc1nc2cnc3[nH]ccc3c2n1[C@H]1CC[C@H](CC#N)CC1 [Ex. 171, 1-((1-((1r,4r)-4-(Cyanomethyl)cyclohexyl)-1,6-dihydroimidazo[4,5-d]pyrrolo[2,3-b]pyridin-2-yl)methyl)-3-isopropylurea]
JAK3-JH1JH2
  IC50: 211 nM
JAK2-JH1JH2
  IC50: 33.9 nM
JAK1-JH1JH2
  IC50: 2 nM
Tyk2-JH1JH2
  IC50: 18.8 nM

## CC(C)NC(=O)c1nc2cnc3[nH]ccc3c2n1[C@H]1CC[C@H](CC#N)CC1 [Ex. 172, 1-((1r,4r)-4-(Cyanomethyl)cyclohexyl)-N-isopropyl-1,6-dihydroimidazo[4,5-d]pyrrolo[2,3-b]pyridine-2-carboxamide]
JAK3-JH1JH2
  IC50: 3060 nM
JAK2-JH1JH2
  IC50: 75.2 nM
JAK1-JH1JH2
  IC50: 2.1 nM
Tyk2-JH1JH2
  IC50: 53.5 nM

## COCCCNC(=O)c1nc2cnc3[nH]ccc3c2n1[C@H]1CC[C@H](CC#N)CC1 [Ex. 173, 1-((1r,4r)-4-(Cyanomethyl)cyclohexyl)-N-(3-methoxypropyl)-1,6-dihydroimidazo[4,5-d]pyrrolo[2,3-b]pyridine-2-carboxamide]
JAK3-JH1JH2
  IC50: 732 nM
JAK2-JH1JH2
  IC50: 28 nM
JAK1-JH1JH2
  IC50: 1.3 nM
Tyk2-JH1JH2
  IC50: 55.9 nM

## N#CC[C@H]1CC[C@H](n2c(C(=O)NCC3CC3)nc3cnc4[nH]ccc4c32)CC1 [Ex. 174, 1-((1r,4r)-4-(cyanomethyl)cyclohexyl)-N-(cyclopropylmethyl)-1,6-dihydroimidazo[4,5-d]pyrrolo[2,3-b]pyridine-2-carboxamide]
JAK3-JH1JH2
  IC50: 604 nM
JAK2-JH1JH2
  IC50: 57.2 nM
JAK1-JH1JH2
  IC50: 2.2 nM
Tyk2-JH1JH2
  IC50: 55.2 nM

## N#CC[C@H]1CC[C@H](n2c(C(=O)NC3CC3)nc3cnc4[nH]ccc4c32)CC1 [Ex. 175, 1-((1r,4r)-4-(Cyanomethyl)cyclohexyl)-N-cyclopropyl-1,6-dihydroimidazo[4,5-d]pyrrolo[2,3-b]pyridine-2-carboxamide]
JAK3-JH1JH2
  IC50: 839 nM
JAK2-JH1JH2
  IC50: 27.8 nM
JAK1-JH1JH2
  IC50: 2.5 nM
Tyk2-JH1JH2
  IC50: 49.5 nM

## COC1CCN(C(=O)c2nc3cnc4[nH]ccc4c3n2[C@H]2CC[C@H](CC#N)CC2)CC1 [Ex. 176, 2-((1r,4r)-4-(2-(4-Methoxypiperidine-1-carbonyl)imidazo[4,5-d]pyrrolo[2,3-b]pyridin-1(6H)-yl)cyclohexyl)acetonitrile]
JAK3-JH1JH2
  IC50: 3250 nM
JAK2-JH1JH2
  IC50: 157 nM
JAK1-JH1JH2
  IC50: 2.6 nM
Tyk2-JH1JH2
  IC50: 127 nM

## N#CC[C@H]1CC[C@H](n2c(C(=O)N3CCC(C#N)CC3)nc3cnc4[nH]ccc4c32)CC1 [Ex. 177, 1-(1-((1r,4r)-4-(Cyanomethyl)cyclohexyl)-1,6-dihydroimidazo[4,5-d]pyrrolo[2,3-b]pyridine-2-carbonyl)piperidine-4-carbonitrile]
JAK3-JH1JH2
  IC50: 2370 nM
JAK2-JH1JH2
  IC50: 161 nM
JAK1-JH1JH2
  IC50: 2.7 nM
Tyk2-JH1JH2
  IC50: 102 nM

## N#CC[C@H]1CC[C@H](n2c(C(=O)NC3CCOCC3)nc3cnc4[nH]ccc4c32)CC1 [Ex. 178, 1-((1r,4r)-4-(Cyanomethyl)cyclohexyl)-N-(tetrahydro-2H-pyran-4-yl)-1,6-dihydroimidazo[4,5-d]pyrrolo[2,3-b]pyridine-2-carboxamide]
JAK3-JH1JH2
  IC50: 1310 nM
JAK2-JH1JH2
  IC50: 60 nM
JAK1-JH1JH2
  IC50: 3.1 nM
Tyk2-JH1JH2
  IC50: 42.2 nM

## COCC(C)NC(=O)c1nc2cnc3[nH]ccc3c2n1[C@H]1CC[C@H](CC#N)CC1 (stereo partly drawn) [Ex. 179, 1-((1r,4r)-4-(Cyanomethyl)cyclohexyl)-N-(1-methoxypropan-2-yl)-1,6-dihydroimidazo[4,5-d]pyrrolo[2,3-b]pyridine-2-carboxamide]
JAK3-JH1JH2
  IC50: 641 nM
JAK2-JH1JH2
  IC50: 20.9 nM
JAK1-JH1JH2
  IC50: 1.4 nM
Tyk2-JH1JH2
  IC50: 30 nM

## N#CC[C@H]1CC[C@H](n2c(C(=O)N3CCOCC3)nc3cnc4[nH]ccc4c32)CC1 [Ex. 180, 2-((1r,4r)-4-(2-(Morpholine-4-carbonyl)imidazo[4,5-d]pyrrolo[2,3-b]pyridin-1(6H)-yl)cyclohexyl)acetonitrile]
JAK3-JH1JH2
  IC50: 2290 nM
JAK2-JH1JH2
  IC50: 149 nM
JAK1-JH1JH2
  IC50: 3.4 nM
Tyk2-JH1JH2
  IC50: 129 nM

## N#CC[C@H]1CC[C@H](n2c(C(=O)N3CCC(O)CC3)nc3cnc4[nH]ccc4c32)CC1 [Ex. 181, 2-((1r,4r)-4-(2-(4-Hydroxypiperidine-1-carbonyl)imidazo[4,5-d]pyrrolo[2,3-b]pyridin-1(6H)-yl)cyclohexyl)acetonitrile]
JAK3-JH1JH2
  IC50: 6300 nM
JAK2-JH1JH2
  IC50: 331 nM
JAK1-JH1JH2
  IC50: 5.4 nM
Tyk2-JH1JH2
  IC50: 159 nM

## CCOC(=O)Cn1cc(-c2nc3cnc4[nH]ccc4c3n2[C@H]2CC[C@H](CC#N)CC2)cn1 [Ex. 182, Ethyl 2-(4-(1-((1r,4r)-4-(cyanomethyl)cyclohexyl)-1,6-dihydroimidazo[4,5-d]pyrrolo[2,3-b]pyridin-2-yl)-1H-pyrazol-1-yl)acetate]
JAK3-JH1JH2
  IC50: 276 nM
JAK2-JH1JH2
  IC50: 24.3 nM
JAK1-JH1JH2
  IC50: 2.8 nM
Tyk2-JH1JH2
  IC50: 52.5 nM

## Cc1nc(C)c(-c2nc3cnc4[nH]ccc4c3n2[C@H]2CC[C@H](CC#N)CC2)o1 [Ex. 183, 2-((1r,4r)-4-(2-(2,4-dimethyloxazol-5-yl)imidazo[4,5-d]pyrrolo[2,3-b]pyridin-1(6H)-yl)cyclohexyl)acetonitrile]
JAK3-JH1JH2
  IC50: 645 nM
JAK2-JH1JH2
  IC50: 52.9 nM
JAK1-JH1JH2
  IC50: 4.3 nM
Tyk2-JH1JH2
  IC50: 118 nM

## Cc1nc(C)c(-c2nc3cnc4[nH]ccc4c3n2[C@H]2CC[C@H](CC#N)CC2)s1 [Ex. 184, 2-((1r,4r)-4-(2-(2,4-dimethylthiazol-5-yl)imidazo[4,5-d]pyrrolo[2,3-b]pyridin-1(6H)-yl)cyclohexyl)acetonitrile]
JAK3-JH1JH2
  IC50: 1230 nM
JAK2-JH1JH2
  IC50: 230 nM
JAK1-JH1JH2
  IC50: 25.5 nM
Tyk2-JH1JH2
  IC50: 319 nM

## N#CC[C@H]1CC[C@H](n2c(-c3cnn(CC(=O)NC4CC4)c3)nc3cnc4[nH]ccc4c32)CC1 [Ex. 185, 2-(4-(1-((1r,4r)-4-(Cyanomethyl)cyclohexyl)-1,6-dihydroimidazo[4,5-d]pyrrolo[2,3-b]pyridin-2-yl)-1H-pyrazol-1-yl)-N-cyclopropylacetamide]
JAK3-JH1JH2
  IC50: 150 nM
JAK2-JH1JH2
  IC50: 19.8 nM
JAK1-JH1JH2
  IC50: 2.1 nM
Tyk2-JH1JH2
  IC50: 36.4 nM

## N#CC[C@H]1CC[C@H](n2c(-c3cccnc3N)nc3cnc4[nH]ccc4c32)CC1 [Ex. 186, 2-((1r,4r)-4-(2-(2-aminopyridin-3-yl)imidazo[4,5-d]pyrrolo[2,3-b]pyridin-1(6H)-yl)cyclohexyl)acetonitrile]
JAK3-JH1JH2
  IC50: 4650 nM
JAK2-JH1JH2
  IC50: 82.2 nM
JAK1-JH1JH2
  IC50: 3.7 nM
Tyk2-JH1JH2
  IC50: 254 nM
